ChEMBL document CHEMBL3085629, “Highly functionalized 2-oxopiperazine-based peptidomimetics: an approach to PAR1 antagonists” (2013)
The source made the active and inactive calls. No cut-off for these calls is given here.

Key:
[1] = target: T1, Proteinase-activated receptor 1 (Homo sapiens) (UniProt P25116); experiment: Antagonist activity at PAR1 in human platelet rich plasma assessed as inhibition of SFLLRN-induced platelet aggregation at 150 uM after 5 mins by aggregometric analysis relative to control
T1 sequence (whole entry): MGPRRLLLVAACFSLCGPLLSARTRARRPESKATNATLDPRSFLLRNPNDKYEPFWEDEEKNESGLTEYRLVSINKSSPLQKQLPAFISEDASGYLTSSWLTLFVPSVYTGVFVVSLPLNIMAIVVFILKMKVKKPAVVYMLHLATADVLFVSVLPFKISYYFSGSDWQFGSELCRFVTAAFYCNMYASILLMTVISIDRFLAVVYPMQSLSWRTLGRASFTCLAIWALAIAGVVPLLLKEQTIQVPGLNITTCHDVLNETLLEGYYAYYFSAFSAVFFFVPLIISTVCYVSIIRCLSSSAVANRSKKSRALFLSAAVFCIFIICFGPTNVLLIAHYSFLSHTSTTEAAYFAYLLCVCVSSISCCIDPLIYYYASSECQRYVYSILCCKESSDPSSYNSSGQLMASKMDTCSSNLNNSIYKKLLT

MDA-MB-231 = experiment: Cytotoxicity against human MDA-MB-231 cells after 48 hrs by sulforhodamine B assay; type: functional; conditions: MDA-MB-231, 48 h
HT-29 = experiment: Cytotoxicity against human HT-29 cells after 48 hrs by sulforhodamine B assay; type: functional; conditions: HT-29, 48 h
A549 = experiment: Cytotoxicity against human A549 cells after 48 hrs by sulforhodamine B assay; type: functional; conditions: A549, 48 h

SMILES	inhibition [1]	GI50 (MDA-MB-231) [µM]	GI50 (HT-29) [µM]	GI50 (A549) [µM]
Cc1c(C)c(S(=O)(=O)/N=C(\N)NCCC[C@H]2C(=O)N(Cc3ccccc3)C[C@H]([C@H](Cc3c[nH]c4ccccc34)NC(=O)NCc3ccccc3)N2Cc2ccccc2)c(C)c2c1OC(C)(C)C2	Active	–	–	–
Cc1c(C)c(S(=O)(=O)/N=C(\N)NCCC[C@H]2C(=O)N(Cc3ccccc3)C[C@@H]([C@H](Cc3ccccc3)NC(=O)NCc3ccccc3)N2Cc2ccccc2)c(C)c2c1OC(C)(C)C2	57%	–	–	–
Cc1c(C)c(S(=O)(=O)/N=C(/N)NCCC[C@H]2C(=O)NC[C@H]([C@H](Cc3ccccc3)NC(=O)OC(C)(C)C)N2Cc2ccccc2)c(C)c2c1OC(C)(C)C2	–	6.83	5.26	1.24
Cc1c(C)c(S(=O)(=O)/N=C(/N)NCCC[C@H]2C(=O)N(Cc3ccccc3)C[C@H](CCc3ccccc3)N2Cc2ccccc2)c(C)c2c1OC(C)(C)C2	Active	–	–	–
Cc1c(C)c(S(=O)(=O)/N=C(/N)NCCC[C@H]2C(=O)NC[C@H]([C@H](Cc3cn(C(=O)OC(C)(C)C)c4ccccc34)NC(=O)OC(C)(C)C)N2Cc2ccccc2)c(C)c2c1OC(C)(C)C2	–	4.44	3.78	4.89
CC(C)(C)OC(=O)CN1[C@@H]([C@H](Cc2cn(C(=O)OC(C)(C)C)c3ccccc23)NC(=O)OC(C)(C)C)CN(Cc2ccccc2)C(=O)[C@@H]1CCCCNC(=O)OC(C)(C)C	inactive	1.56	4.44	> 10
Cc1c(C)c(S(=O)(=O)/N=C(/N)NCCC[C@H]2C(=O)NC[C@H]([C@H](Cc3cn(C(=O)OC(C)(C)C)c4ccccc34)NC(=O)OC(C)(C)C)N2CC(=O)OC(C)(C)C)c(C)c2c1OC(C)(C)C2	–	4.54	4.98	3.25
CC(C)(C)OC(=O)NCCCC[C@H]1C(=O)NC[C@@H]([C@H](Cc2cn(C(=O)OC(C)(C)C)c3ccccc23)NC(=O)OC(C)(C)C)N1Cc1ccccc1	inactive	4.58	4.45	5.56
CC(C)(C)OC(=O)CN1[C@@H](CCCCNC(=O)OC(C)(C)C)C(=O)NC[C@H]1[C@H](Cc1cn(C(=O)OC(C)(C)C)c2ccccc12)NC(=O)OC(C)(C)C	inactive	6.72	5.78	8.6
CC(C)(C)OC(=O)CN1[C@@H](CCCCNC(=O)OC(C)(C)C)C(=O)N(Cc2ccccc2)C[C@H]1[C@H](Cc1cn(C(=O)OC(C)(C)C)c2ccccc12)NC(=O)OC(C)(C)C	inactive	–	–	–
Cc1c(C)c(S(=O)(=O)/N=C(/N)NCCC[C@H]2C(=O)NC[C@@H]([C@H](Cc3ccccc3)NC(=O)OC(C)(C)C)N2Cc2ccccc2)c(C)c2c1OC(C)(C)C2	–	6.04	3.29	5.39
CC(C)(C)OC(=O)NCCCC[C@H]1C(=O)NC[C@H]([C@H](Cc2cn(C(=O)OC(C)(C)C)c3ccccc23)NC(=O)OC(C)(C)C)N1Cc1ccccc1	inactive	2.92	4.58	4.86
CC(C)(C)OC(=O)NCCCC[C@@H]1N[C@H]([C@H](Cc2cn(C(=O)OC(C)(C)C)c3ccccc23)NC(=O)OC(C)(C)C)CNC1=O	inactive	5.31	5.43	9.75
Cc1c(C)c(S(=O)(=O)/N=C(/N)NCCC[C@H]2C(=O)NC[C@@H]([C@H](Cc3cn(C(=O)OC(C)(C)C)c4ccccc34)NC(=O)OC(C)(C)C)N2CC(=O)OC(C)(C)C)c(C)c2c1OC(C)(C)C2	–	4.87	2.92	7.68
COc1cccc2c1C(=O)c1c(O)c3c(c(O)c1C2=O)C[C@@](O)(C(=O)CO)C[C@@H]3O[C@H]1C[C@H](N)[C@H](O)[C@H](C)O1 [DOXORUBICIN]	–	0.09	0.1	0.07
Cc1c(C)c(S(=O)(=O)/N=C(/N)NCCC[C@H]2C(=O)NC[C@@H]([C@H](Cc3cn(C(=O)OC(C)(C)C)c4ccccc34)NC(=O)OC(C)(C)C)N2Cc2ccccc2)c(C)c2c1OC(C)(C)C2	–	4.55	3.78	5.55
CC(C)(C)OC(=O)CN1[C@@H]([C@H](Cc2cn(C(=O)OC(C)(C)C)c3ccccc23)NC(=O)OC(C)(C)C)CNC(=O)[C@@H]1CCCCNC(=O)OC(C)(C)C	inactive	2.29	3.09	4.57
Cc1c(C)c(S(=O)(=O)/N=C(\N)NCCC[C@H]2C(=O)N(Cc3ccccc3)C[C@H]([C@H](Cc3ccccc3)NC(=O)NCc3ccccc3)N2Cc2ccccc2)c(C)c2c1OC(C)(C)C2	Active	–	–	–
Cc1c(C)c(S(=O)(=O)/N=C(/N)NCCC[C@H]2C(=O)N(Cc3ccccc3)C[C@@H](CCc3ccccc3)N2Cc2ccccc2)c(C)c2c1OC(C)(C)C2	Active	–	–	–
CC(C)(C)OC(=O)NCCCC[C@@H]1N[C@@H]([C@H](Cc2cn(C(=O)OC(C)(C)C)c3ccccc23)NC(=O)OC(C)(C)C)CNC1=O	inactive	5.56	5.43	> 10

Second part, led by results:

inhibition [1]	SMILES	GI50 (MDA-MB-231) [µM]	GI50 (HT-29) [µM]	GI50 (A549) [µM]
Active	Cc1c(C)c(S(=O)(=O)/N=C(/N)NCCC[C@H]2C(=O)N(Cc3ccccc3)C[C@H](CCc3cn(C(=O)OC(C)(C)C)c4ccccc34)N2Cc2ccccc2)c(C)c2c1OC(C)(C)C2	–	–	–
Active	Cc1c(C)c(S(=O)(=O)/N=C(/N)NCCC[C@H]2C(=O)N(Cc3ccccc3)C[C@@H]([C@H](Cc3cn(C(=O)OC(C)(C)C)c4ccccc34)NC(=O)OC(C)(C)C)N2Cc2ccccc2)c(C)c2c1OC(C)(C)C2	–	–	–
inactive	CC(C)(C)OC(=O)NCCCC[C@H]1C(=O)N(Cc2ccccc2)C[C@H]([C@H](Cc2cn(C(=O)OC(C)(C)C)c3ccccc23)NC(=O)OC(C)(C)C)N1Cc1ccccc1	3.33	> 10	> 10
Active	Cc1c(C)c(S(=O)(=O)/N=C(\N)NCCC[C@H]2C(=O)N(Cc3ccccc3)C[C@H]([C@H](Cc3ccccc3)NC(=O)OC(C)(C)C)N2Cc2ccccc2)c(C)c2c1OC(C)(C)C2	–	–	–
Active	Cc1c(C)c(S(=O)(=O)/N=C(\N)NCCC[C@H]2C(=O)N(Cc3ccccc3)C[C@@H]([C@H](Cc3ccccc3)NC(=O)OC(C)(C)C)N2Cc2ccccc2)c(C)c2c1OC(C)(C)C2	–	–	–
inactive	CC(C)(C)OC(=O)NCCCC[C@H]1C(=O)N(Cc2ccccc2)C[C@@H]([C@H](Cc2cn(C(=O)OC(C)(C)C)c3ccccc23)NC(=O)OC(C)(C)C)N1Cc1ccccc1	1.48	3.83	> 10
Active	Cc1c(C)c(S(=O)(=O)/N=C(/N)NCCC[C@H]2C(=O)N(Cc3ccccc3)C[C@H]([C@H](Cc3cn(C(=O)OC(C)(C)C)c4ccccc34)NC(=O)OC(C)(C)C)N2CC(=O)OC(C)(C)C)c(C)c2c1OC(C)(C)C2	–	–	–
Active	Cc1c(C)c(S(=O)(=O)/N=C(/N)NCCC[C@H]2C(=O)N(Cc3ccccc3)C[C@H]([C@H](Cc3cn(C(=O)OC(C)(C)C)c4ccccc34)NC(=O)OC(C)(C)C)N2Cc2ccccc2)c(C)c2c1OC(C)(C)C2	–	–	–
Active	Cc1c(C)c(S(=O)(=O)/N=C(\N)NCCC[C@H]2C(=O)N(Cc3ccccc3)C[C@@H]([C@H](Cc3c[nH]c4ccccc34)NC(=O)NCc3ccccc3)N2Cc2ccccc2)c(C)c2c1OC(C)(C)C2	–	–	–
Active	Cc1c(C)c(S(=O)(=O)/N=C(\N)NCCC[C@H]2C(=O)N(Cc3ccccc3)C[C@@H]([C@H](Cc3ccccc3)NC(=O)OC(C)(C)C)N2CC(=O)OC(C)(C)C)c(C)c2c1OC(C)(C)C2	–	–	–
Active	Cc1c(C)c(S(=O)(=O)/N=C(/N)NCCC[C@H]2C(=O)N(Cc3ccccc3)C[C@@H]([C@H](Cc3cn(C(=O)OC(C)(C)C)c4ccccc34)NC(=O)OC(C)(C)C)N2CC(=O)OC(C)(C)C)c(C)c2c1OC(C)(C)C2	–	–	–
Active	Cc1c(C)c(S(=O)(=O)/N=C(/N)NCCC[C@H]2C(=O)N(Cc3ccccc3)C[C@@H](CCc3cn(C(=O)OC(C)(C)C)c4ccccc34)N2Cc2ccccc2)c(C)c2c1OC(C)(C)C2	–	–	–
Active	Cc1c(C)c(S(=O)(=O)/N=C(\N)NCCC[C@H]2C(=O)N(Cc3ccccc3)C[C@H]([C@H](Cc3ccccc3)NC(=O)OC(C)(C)C)N2CC(=O)OC(C)(C)C)c(C)c2c1OC(C)(C)C2	–	–	–
